Earlier results, collected in US9394312B1, “Ibrutinib prodrugs, pharmaceutical compositions thereof, and methods of use” (priority 2015, dated 2016).

Settings: humans, combined with a meal versus fasted

## C=CC(=O)N1CCC[C@@H](n2nc(-c3ccc(Oc4ccccc4)cc3)c3c(N)ncnc32)C1 [ibrutinib]
  change of absolute bioavailability when combined with a meal: doubled
